Source: patent US20070219186A1, “Pyrazolo[1,5-A]pyrimidine derivatives and methods of use thereof” (priority 2006, published 2007)
Where two headings read alike, the source gives them in different places.

Biological target: T1, human B-Raf (Homo sapiens, UniProt P15056)
T1 construct: Flag; GST; made in house; host or cells: Sf9 insect cells (B-Raf); E. coli (MEK1-GST)
Test: B-Raf Kinase to MEK1 ELISA
Assay type: biochemical
Conditions: for inhibition at 10 µM: read-out: % Inhib./10 uM
How it was run: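 Flag/GST-tagged human B-Raf (Sf9, ~20 ng/point) phosphorylates non-active GST-MEK1 (50 nM final) with ATP and MgCl2 in MOPS pH 7.2 buffer, 60 min at RT. Product is captured on anti-GST plates; MEK1 pSer217/221 is read by phospho-antibody plus europium conjugate (DELFIA).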

[1] = median, cpd concentrations from 10 μM to 30 nM in half log dilutions, read-out: Median IC50

T1 sequence (P15056 whole entry): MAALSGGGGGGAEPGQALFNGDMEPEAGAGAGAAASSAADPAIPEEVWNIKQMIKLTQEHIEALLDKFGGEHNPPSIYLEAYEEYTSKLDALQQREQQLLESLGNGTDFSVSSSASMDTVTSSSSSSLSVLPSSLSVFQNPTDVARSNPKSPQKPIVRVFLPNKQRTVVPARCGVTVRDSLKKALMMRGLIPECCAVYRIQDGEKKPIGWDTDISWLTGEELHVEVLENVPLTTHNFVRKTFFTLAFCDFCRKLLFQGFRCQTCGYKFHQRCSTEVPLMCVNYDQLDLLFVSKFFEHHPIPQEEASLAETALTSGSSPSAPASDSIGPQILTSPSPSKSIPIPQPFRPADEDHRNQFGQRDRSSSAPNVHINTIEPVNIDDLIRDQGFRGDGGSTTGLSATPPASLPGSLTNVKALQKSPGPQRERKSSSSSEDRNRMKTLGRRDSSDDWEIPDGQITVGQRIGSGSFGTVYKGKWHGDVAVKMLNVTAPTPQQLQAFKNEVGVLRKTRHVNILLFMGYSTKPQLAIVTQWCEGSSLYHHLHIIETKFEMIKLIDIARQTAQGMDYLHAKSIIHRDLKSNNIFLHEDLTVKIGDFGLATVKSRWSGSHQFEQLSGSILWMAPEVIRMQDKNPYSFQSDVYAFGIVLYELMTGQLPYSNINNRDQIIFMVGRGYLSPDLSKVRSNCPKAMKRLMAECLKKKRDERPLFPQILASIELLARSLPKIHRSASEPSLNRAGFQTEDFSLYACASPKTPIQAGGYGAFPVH

| IC50 [1] | inhibition at 10 µM | Structure (SMILES) | IC50 | inhibition at 10 µM (single point assay, 10 uM) |
| --- | --- | --- | --- | --- |
| > 10 µM | 10% | CCOC(=O)c1cnn2c(-c3cccc(NC(=O)c4cc(Cl)ccc4C)c3)ccnc12 [Example 74, ethyl 7-{3-[(5-chloro-2-methylbenzoyl)amino]phenyl}pyrazolo[1,5-a]pyrimidine-3-carboxylate] | – | – |
| > 10 µM | 0% | CCOC(=O)c1cnn2c(-c3cccc(NC(=O)c4ccc(F)cc4C(F)(F)F)c3)ccnc12 [Example 76, ethyl 7-(3-{[4-fluoro-2-(trifluoromethyl)benzoyl]amino}phenyl)pyrazolo[1,5-a]pyrimidine-3-carboxylate] | – | – |
| 0.99 µM | 72% | CCOC(=O)c1cnn2c(-c3cccc(NC(=O)Nc4cc(OC)cc(C(F)(F)F)c4)c3)ccnc12 [Example 77, ethyl 7-{3-[({[3-methoxy-5-(trifluoromethyl)phenyl]amino}carbonyl)amino]phenyl}pyrazolo[1,5-a]pyrimidine-3-carboxylate] | – | – |
| 0.37 µM | 88% | CCOC(=O)c1cnn2c(-c3cccc(NC(=O)Nc4ccc(C)c(C(F)(F)F)c4)c3)ccnc12 [Example 79, ethyl 7-{3-[({[4-methyl-3-(trifluoromethyl)phenyl]amino}carbonyl)amino]phenyl}pyrazolo[1,5-a]pyrimidine-3-carboxylate] | – | – |
| – | 47% | CCOC(=O)c1cnn2c(-c3cccc(NC(=O)Nc4cccc(Cl)c4)c3)ccnc12 [Example 80, Ethyl 7-[3-({[(3-chlorophenyl)amino]carbonyl}amino)phenyl]-pyrazolo[1,5-a]pyrimidine-3-carboxylate] | – | – |
| 6.15 µM | 50% | CCOC(=O)c1cnn2c(-c3cccc(NC(=O)Nc4ccc(OC)c(Cl)c4)c3)ccnc12 [Example 81, ethyl 7-[3-({[(3-chloro-4-methoxyphenyl)amino]carbonyl}amino)phenyl]pyrazolo[1,5-a]pyrimidine-3-carboxylate] | – | – |
| 0.57 µM | 77% | CCOC(=O)c1cnn2c(-c3cccc(NC(=O)Nc4ccc(C)c(Cl)c4)c3)ccnc12 [Example 82, ethyl 7-[3-({[(3-chloro-4-methylphenyl)amino]carbonyl}amino)phenyl]pyrazolo[1,5-a]pyrimidine-3-carboxylate] | – | – |
| 0.6 µM | 71% | CCOC(=O)c1cnn2c(-c3cccc(NC(=O)Nc4ccc(Br)c(Cl)c4)c3)ccnc12 [Example 83, ethyl 7-[3-({[(4-bromo-3-chlorophenyl)amino]carbonyl}amino)phenyl]pyrazolo[1,5-a]pyrimidine-3-carboxylate] | – | – |
| > 10 µM | 22% | CCOC(=O)c1cnn2c(-c3cccc(NC(=O)Nc4ccc(N5CCOCC5)c(Cl)c4)c3)ccnc12 [Example 84, ethyl 7-[3-({[(3-chloro-4-morpholin-4-ylphenyl)amino]carbonyl}amino)phenyl]pyrazolo[1,5-a]pyrimidine-3-carboxylate] | – | – |
| > 10 µM | 97% | CCOC(=O)c1cnn2c(-c3cccc(NC(=O)Cc4cccc(Br)c4)c3)ccnc12 [Example 92, ethyl 7-(3-{[(3-bromophenyl)acetyl]amino}phenyl)pyrazolo[1,5-a]pyrimidine-3-carboxylate] | – | – |
| > 10 µM | 0% | CCOC(=O)c1cnn2c(-c3cccc(NC(=O)Cc4cccc(F)c4)c3)ccnc12 [Example 93, ethyl 7-(3-{[(3-fluorophenyl)acetyl]amino}phenyl)pyrazolo[1,5-a]pyrimidine-3-carboxylate] | – | – |
| > 10 µM | 14% | CCOC(=O)c1cnn2c(-c3cccc(NC(=O)Cc4cccc(Cl)c4)c3)ccnc12 [Example 94, ethyl 7-(3-{[(3-chlorophenyl)acetyl]amino}phenyl)pyrazolo[1,5-a]pyrimidine-3-carboxylate] | – | – |
| > 10 µM | 39% | CCOC(=O)c1cnn2c(-c3cccc(NC(=O)Cc4ccc(Cl)c(Cl)c4)c3)ccnc12 [Example 95, ethyl 7-(3-{[(3,4-dichlorophenyl)acetyl]amino}phenyl)pyrazolo[1,5-a]pyrimidine-3-carboxylate] | – | – |
| > 10 µM | 0% | CCOC(=O)c1cnn2c(-c3cccc(NC(=O)Cc4cccc(OC)c4)c3)ccnc12 [Example 96, ethyl 7-(3-{[(3-methoxyphenyl)acetyl]amino}phenyl)pyrazolo[1,5-a]pyrimidine-3-carboxylate] | – | – |

Further lines, the molecule ahead of its results:

| Structure (SMILES) | IC50 [1] | inhibition at 10 µM | IC50 | inhibition at 10 µM (single point assay, 10 uM) |
| --- | --- | --- | --- | --- |
| CCOC(=O)c1cnn2c(-c3cccc(NC(=O)c4cc(F)cc(C(F)(F)F)c4)c3)ccnc12 [Example 75, ethyl 7-(3-{[3-fluoro-5-(trifluoromethyl)benzoyl]amino}phenyl)pyrazolo[1,5-a]pyrimidine-3-carboxylate] | 6.6 µM | 58% | – | – |
| CCOC(=O)c1cnn2c(-c3cccc(NC(=O)Nc4ccc(C#N)c(C(F)(F)F)c4)c3)ccnc12 [Example 78, ethyl 7-{3-[({[4-cyano-3-(trifluoromethyl)phenyl]amino}carbonyl)amino]phenyl}pyrazolo[1,5-a]pyrimidine-3-carboxylate] | – | – | 0.57 µM | 85% |
| CCOC(=O)c1cnn2c(-c3cc(NC(=O)c4cccc(C(F)(F)F)c4)ccc3[N+](=O)[O-])ccnc12 [Example 85, ethyl 7-(2-nitro-5-{[3-(trifluoromethyl)benzoyl]amino}phenyl)pyrazolo[1,5-a]pyrimidine-3-carboxylate] | 0.41 µM | 81% | – | – |
| CCOC(=O)c1cnn2c(-c3ccc(Cl)c(NC(=O)c4cccc(C(F)(F)F)c4)c3)ccnc12 [Example 86, ethyl 7-(4-chloro-3-{[3-(trifluoromethyl)benzoyl]amino}phenyl)pyrazolo[1,5-a]pyrimidine-3-carboxylate] | > 10 µM | 18% | – | – |
| CCOC(=O)c1cnn2c(-c3ccc(N4CC(C)OC(C)C4)c(NC(=O)c4cccc(C(F)(F)F)c4)c3)ccnc12 (stereo not drawn) [Example 87, ethyl 7-(4-(2,6-dimethylmorpholin-4-yl)-3-{[3-(trifluoromethyl)benzoyl]amino}phenyl)pyrazolo[1,5-a]pyrimidine-3-carboxylate] | > 10 µM | 9% | – | – |
| CCOC(=O)c1cnn2c(-c3ccc(OC)c(NC(=O)c4cccc(C(F)(F)F)c4)c3)ccnc12 [Example 88, ethyl 7-(4-methoxy-3-{[3-(trifluoromethyl)benzoyl]amino}phenyl)pyrazolo[1,5-a]pyrimidine-3-carboxylate] | > 10 µM | 14% | – | – |
| CCOC(=O)c1cnn2c(-c3ccc(F)c(NC(=O)c4cccc(C(F)(F)F)c4)c3)ccnc12 [Example 89, ethyl 7-(4-fluoro-3-{[3-(trifluoromethyl)benzoyl]amino}phenyl)pyrazolo[1,5-a]pyrimidine-3-carboxylate] | 2.17 µM | 65% | – | – |
| CCOC(=O)c1cnn2c(-c3ccc(OCc4ccccc4)c(NC(=O)c4cccc(C(F)(F)F)c4)c3)ccnc12 [Example 90, ethyl 7-(4-(benzyloxy)-3-{[3-(trifluoromethyl)benzoyl]amino}phenyl)pyrazolo[1,5-a]pyrimidine-3-carboxylate] | > 10 µM | 4% | – | – |
| CCOC(=O)c1cnn2c(-c3cc(NC(=O)c4cccc(C(F)(F)F)c4)ccc3F)ccnc12 [Example 91, ethyl 7-(2-fluoro-5-{[3-(trifluoromethyl)benzoyl]amino}phenyl)pyrazolo[1,5-a]pyrimidine-3-carboxylate] | 0.112 µM | 94% | – | – |
